{"source": "paper PMC4177951", "about": "“Identification and Functional Expression of a Glutamate- and Avermectin-Gated Chloride Channel from Caligus rogercresseyi, a Southern Hemisphere Sea Louse Affecting Farmed Fish” (PLoS Pathogens, 2014)", "key": {"[1]": {"target": "T1, CrGluClα (Caligus rogercresseyi, UniProt A0A1W6LZ70)", "T1 construct": "full-length ORF (clones CrGluCl-Vald13 and CrGluCl-Vald2)", "T1 sequence (A0A1W6LZ70 entry or part of it)": "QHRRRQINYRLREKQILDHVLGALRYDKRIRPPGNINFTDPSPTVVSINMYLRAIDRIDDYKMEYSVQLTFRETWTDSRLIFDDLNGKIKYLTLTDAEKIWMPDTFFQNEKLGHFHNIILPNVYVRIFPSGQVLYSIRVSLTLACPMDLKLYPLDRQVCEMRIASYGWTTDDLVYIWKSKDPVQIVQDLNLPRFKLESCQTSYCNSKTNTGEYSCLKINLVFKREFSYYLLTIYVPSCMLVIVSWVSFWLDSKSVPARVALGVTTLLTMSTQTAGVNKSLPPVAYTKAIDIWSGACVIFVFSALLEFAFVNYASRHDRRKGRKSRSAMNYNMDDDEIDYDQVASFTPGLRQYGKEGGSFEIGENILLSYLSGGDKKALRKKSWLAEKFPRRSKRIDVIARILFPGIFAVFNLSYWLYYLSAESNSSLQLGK", "experiment": "two-electrode voltage clamp in Xenopus oocytes expressing the channel; agonist concentration-response", "type": "cell-based"}, "[2]": {"target": "T2, CrGluClα-T318A (Caligus rogercresseyi, UniProt A0A1W6LZ70, T318A)", "T2 construct": "full ORF in pCR3.1, homopentamer expressed in Xenopus laevis oocytes, T318A point mutant at extracellular end of M3", "T2 sequence (A0A1W6LZ70 33-463 T318A)": "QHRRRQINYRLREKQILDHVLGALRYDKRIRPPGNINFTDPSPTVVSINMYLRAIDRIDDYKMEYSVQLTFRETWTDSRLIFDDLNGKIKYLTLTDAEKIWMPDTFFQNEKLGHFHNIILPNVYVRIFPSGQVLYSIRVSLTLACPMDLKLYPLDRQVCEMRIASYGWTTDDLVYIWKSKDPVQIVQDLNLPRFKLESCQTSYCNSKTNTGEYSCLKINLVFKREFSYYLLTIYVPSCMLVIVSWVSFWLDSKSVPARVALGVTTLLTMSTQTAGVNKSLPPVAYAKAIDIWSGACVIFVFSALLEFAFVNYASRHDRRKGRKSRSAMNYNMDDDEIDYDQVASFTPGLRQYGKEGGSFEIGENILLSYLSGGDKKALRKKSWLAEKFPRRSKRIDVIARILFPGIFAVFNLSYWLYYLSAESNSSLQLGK", "experiment": "two-electrode voltage clamp in Xenopus oocytes; concentration-response of small evoked currents (Figure 9D)", "type": "cell-based"}}, "data": [{"smiles": "N[C@@H](CCC(=O)O)C(=O)O", "note": "[L-glutamate]", "values": [{"measurement": "EC50", "setting": "[1]", "value": "6.89 ± 0.83", "unit": "µM"}, {"measurement": "concentration-response of evoked currents", "setting": "[2]", "value": "Maximal response was reached at lower glutamate concentrations in the CrGluClα-T318A mutant channel."}]}]}
